# From US12239643B2, “Therapeutic agent for inflammatory diseases, autoimmune diseases, fibrotic diseases, and cancer diseases” (MEIJI SEIKA PHARMA CO., LTD., priority 2018, dated 2025)
# Where two headings read alike, the source gives them in different places.
# What was measured:
# [1] = Hepatic metabolic stability (rat liver microsome method); format: in vitro ADME; settings: rat liver microsomes 0.5 mg/mL, test substance 1 μM, NADPH 1 mM, 37° C., 30 minutes
# Outline: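 Scored by % parent left after 30 min (30 min/0 min ×100, LC-MS), banded A ≥75%, B 60–<75%, C 45–<60%, D <45%. Incubation: 1 μM compound, 0.5 mg/mL rat microsomes, pH 7.4 phosphate buffer, 37° C, 5 min preincubation, NADPH 1 mM started, acetonitrile quench.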
# TNFα = test: Cytokine suppression using human peripheral blood mononuclear cells: TNFα; format: cell-based; settings: read-out: TNFα Inhibitory Activity, Human PBMC (Test Example 4)
# Procedure: First, peripheral blood mononuclear cells (PBMC) were separated from whole blood by specific gravity centrifugation. Then, the isolated peripheral blood mononuclear cells were added to RPMI-1640 medium (containing 10% fetal bovine serum, penicillin, streptomycin, L-glutamine, and 2-mercaptoethanol), and cultured in a 96-well plate at 37° C. under 5% CO2 for 0 to 1 hour. The test compound dissolved in dimethyl sulfoxide was added to each well, followed by further culture at 37° C. under 5% CO2 for 1 hour. A medium containing only dimethyl sulfoxide instead of the test compound was added to the control well. To each well, lipopolysaccharide (final concentration 1 ng/mL) as a TNFα production stimulant and an IL-23 production stimulant, or concanavalin A (final concentration 20 μg/mL) as an IL-17A production stimulant was added, followed by culture at 37° C. under 5% CO2. In addition, as IL-4 production stimulus, IL-5 production stimulus, and IL-13 production stimulus, PBMC was seeded on a 96-well plate previously coated with a CD3 antibody (final concentration 3 μg/mL), and a CD28 antibody (final concentration 5 ng/mL) was added. The culture was carried out for about 18 hours for the evaluation of the amounts of TNFα and IL-23, and about 48 hours for the evaluation of the amounts of IL-17A, IL-4, IL-5, and IL-13. After collecting the culture supernatant after culturing, the amount of each cytokine was measured by the sandwich ELISA method in the same manner as in Test Example 3, and the cytokine production suppression rate (inhibition rate) and the cytokine inhibitory activity (concentration for the inhibition rate of 50%) of each test compound were calculated.
# The measurement results obtained by measuring the TNFα inhibitory activity and IL-5 inhibitory activity (50% inhibitory concentration) of the test compounds by the above method were evaluated in accordance with the following evaluated basis; A: less than 10 nM, B: 10 nM or more and less than 100 nM, and C: 100 nM or more. In addition, the measurement results obtained by measuring the IL-17A inhibitory activity, IL-23 inhibitory activity, IL-4 inhibitory activity, and IL-13 inhibitory activity (50% inhibitory concentration) of the test compounds were evaluated in accordance with the following evaluated basis; A: less than 500 nM, B: 500 nM or more and less than 5000 nM, and C: 5000 nM or more.
# [2] = test system: oxazolone-induced auricle edema, BALB/c mice; test: Hapten repeated application mouse chronic dermatitis model (oral, topical); format: in vivo; settings: for Mouse Chronic Dermatitis Model (Test Example 8), Oral: edema suppression rate: 0.3 to 10 mg/kg twice a day for 10 days; for Mouse Chronic Dermatitis Model (Test Example 8), Topical: edema suppression rate: 20 μL of 0.3 to 3% solution once or twice a day for 10 days
# Outline: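 Female BALB/c mice aged 7–8 weeks were sensitised abdominally with 3% oxazolone, then challenged on both ears with 1% oxazolone. From week 1, test compound was given for 10 days orally at 0.3–10 mg/kg twice daily in 0.5% MC, or topically at 0.3–3% once or twice daily. Ear-thickness change measured by dial gauge gave edema suppression versus vehicle control.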
# [3] = human PBMC, lipopolysaccharide 1 ng/mL
SMILES,Residual ratio (% remaining for 30-minute reaction) [1],IC50 (TNFα; [3]),"Mouse Chronic Dermatitis Model (Test Example 8), Oral: edema suppression rate [2]","Mouse Chronic Dermatitis Model (Test Example 8), Topical: edema suppression rate [2]","IC50 (TNFα; Homo sapiens, PBMC)"
"CC(C)(O)C(F)(F)Oc1ccc(-c2nccs2)c2oc(N3CC4CC(C3)N4)nc12 [Example 248, 1-((2-(3,6-Diazabicyclo[3.1.1]heptan-3-yl)-7-(thiazol-2-yl)benzo[d]oxazol-4-yl)oxy)-1,1-difluoro-2-methylpropan-2-ol]",A (A: a % remaining rate of 75% or more),< 0.01 µM,A (A: 70% or more),A (A: 100% or more),–
"CC(O)C(F)(F)Oc1ccc(-c2nccs2)c2oc(N3CC4CC(C3)N4)nc12 (single isomer, unassigned) [Example 252, 1-((2-(3,6-Diazabicyclo[3.1.1]heptan-3-yl)-7-(thiazol-2-yl)benzo[d]oxazol-4-yl)oxy)-1,1-difluoropropan-2-ol]",A (A: a % remaining rate of 75% or more),< 0.01 µM,A (A: 70% or more),A (A: 100% or more),–
"FC(F)(F)Oc1ccc(-c2nccs2)c2oc(N3CC4CC(C3)N4)nc12 [Example 29, 2-(3,6-Diazabicyclo[3.1.1]heptan-3-yl)-7-(thiazol-2-yl)-4-(trifluoromethoxy)benzo[d]oxazole]",B (B: 60% or more and less than 75%),–,A (A: 70% or more),A (A: 100% or more),–
"CCOc1cc([C@@H](CS(C)(=O)=O)N2C(=O)c3cccc(NC(C)=O)c3C2=O)ccc1OC [apremilast, reference compound]",–,–,B (B: 40% or more and less than 70%),–,0.01 to 0.1 µM
